Measured values reported in patent US8148424B2, “Tocopherols, tocotrienols, other chroman and side chain derivatives and uses thereof” (Research Development Foundation, priority 1998, dated 2012).

Columns and labels:
[1] = tested on: human cancer cells from a wide variety of cell lineages; test: Apoptosis induction in a battery of tumor cells; assay type: cell-based; conditions: breast, prostate, leukemia/lymphoid, cervical, ovarian, endometrial, colon, lung cell lines
How it was run: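 Both floating and trypsin-released adherent cells are collected after compound treatment at six concentrations from 0.01 to 20 μg/mL over up to 3 days. Nuclei are stained with DAPI at 37° C and/or TUNEL-labelled; the fraction with apoptotic morphology is scored.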

[2] = tested on: P21 in MDA-MB-435 human breast cancer cells; test: P21 expression; assay type: cell-based
Source text: The mechanisms of growth inhibition by DNA synthesis arrest, cell cycle arrest and by induction of cellular differentiation have not been characterized as fully as the mechanism of growth inhibition by apoptosis. […] Tumor cells cultured with the compounds disclosed herein are growth inhibited in the G1 cell cycle phase, undergo morphological changes and express milk lipids, an indication that the cell cycle blocked cells have undergone differentiation.

[3] = Solubility in ethanol (stock solution); assay type: physicochemical; conditions: in 5 mls of 100% ethanol, vortex at 37° C.
Source text: This is the maximum amount of compound 1 that will go into solution.

[4] = tested on: DU-145 Human Prostate Cancer Cells Transplanted into Nude Mice; test: Preclinical chemotherapeutic xenograft study; assay type: in vivo; conditions: for Percent mean tumor weight gain (mg) following treatments: relative to day 1 of same group
Procedure: (§1) For the preclinical chemotherapeutic studies, in the absence of an maximum tolerated dose, the mice are supplemented with 30 and 20 mgs/0.1 ml by gavage daily for 21 days. Compound 1 is dissolved in 100% ethanol at 2 grams of compound 1/5 mls of ethanol, and diluted in peanut oil (nonsupplemented vitamin E) to yield 30 and 20 mgs of compound 1 per 0.1 ml. Vehicle control consisted of a mixture of ethanol and peanut oil equivalents. The preclinical chemotherapeutic studies are conducted with compound 1, utilizing human MDA-MB-435 human breast cancer cells, human DU-145 prostate cancer cells, and human HT-20 colon tumor cells transplanted into Balb/c immune compromised nude mice.
(§2) A total of 40 immune compromised nude mice are utilized for testing each test compound (two treatment groups at 20 and 30 mg/day) in each tumor cell type. […] Tumor cells are transplanted subcutaneously into the left flank and permitted to grow to approximately 70 mg in size, test compound treatments by daily gavage are initiated, and continue for a total of 21 days. Mice are monitored daily for tumor size by caliper measurements. Mice are treated for 21 days; however, the mice are sacrificed when the tumors of the vehicle control reached 500 mg in weight. At the completion of the protocol, tumors are excised and tumor size established by weight. At the time of sacrifice, serum, tumor, and heart muscle are taken from animals in the two compound 1 test groups in order to establish levels of compound 1 via HPLC analyses (data not included). The chemotherapeutic effectiveness of compound 1 administered daily at 30 and 20 mgs/day is determined by comparing the tumor size of the two treatment groups with the vehicle control group for each of the three tumor types, and by comparing the size of the tumor in the two treatment groups with the tumor group from the positive control. Treatment is for 21 days, experiments are continued until mean weight of tumor for vehicle control reaches 500 mgs.

[5] = tested on: MDA-MB-435 Human Breast Cancer Cells Transplanted into Nude Mice; test: Preclinical chemotherapeutic xenograft study; assay type: in vivo; conditions: for Percent mean tumor weight gain (mg) following treatments: relative to day 1 of same group
Procedure: as §1, §2

[6] = tested on: HT-29 Human Colon Cancer Cells Transplanted into Nude Mice; test: Preclinical chemotherapeutic xenograft study; assay type: in vivo; conditions: for Percent mean tumor weight gain (mg) following treatments: relative to day 1 of same group
Procedure: as §1, §2

[7] = 20 mg/day by gavage for 21 days, day 22
[8] = 30 mg/day by gavage for 21 days, day 22

In the case of `Cc1c(C)c2c(c(C)c1OCC(=O)O)CC[C@@](C)(CCC[C@H](C)CCC[C@H](C)CCCC(C)C)O2` [Compound 1, 2,5,7,8-tetramethyl-(2R-(4R,8R,12-trimethyltridecyl)chroman-6-yloxy)acetic acid], the “growth inhibitory (apoptotic inducing) properties specific for human cancer cells” value [1] is reported as “effective”, the “P21 mRNA and protein” value [2] is reported as “up-regulated” and the “maximum amount that will go into solution” value [3] is reported as 2 grams. For the same compound, the “reduction of mean tumor weight vs vehicle control” value (from here on “reduction of mean tumor weight”) [4, 7] was 31.5%, the “Mean tumor Weights (mg) Following Treatments” value (“Mean tumor Weights” for short) ([4]; 20 mg/day gavage, day 1) was 66.5 mg and the “Percent mean tumor weight gain (mg) following treatments” value (from here on “Percent mean tumor weight gain”) ([4]; 20 mg/day gavage, day 1) was 100%. The “Mean tumor Weights” value ([4]; 20 mg/day gavage, day 5) was 103.5 mg, the “Percent mean tumor weight gain” value ([4]; 20 mg/day gavage, day 5) was 155.6% and the “Mean tumor Weights” value ([4]; 20 mg/day gavage, day 8) was 137.9 mg. For the same compound, the “Percent mean tumor weight gain” value ([4]; 20 mg/day gavage, day 8) was 207.4%, the “Mean tumor Weights” value ([4]; 20 mg/day gavage, day 12) was 208 mg and the “Percent mean tumor weight gain” value ([4]; 20 mg/day gavage, day 12) was 312.8%. The “Mean tumor Weights” value ([4]; 20 mg/day gavage, day 15) was 254.8 mg, the “Percent mean tumor weight gain” value ([4]; 20 mg/day gavage, day 15) was 383.2% and the “Mean tumor Weights” value ([4]; 20 mg/day gavage, day 19) was 362.2 mg. The “Percent mean tumor weight gain” value ([4]; 20 mg/day gavage, day 19) was 362.2%, the “Mean tumor Weights” value ([4]; 20 mg/day gavage, day 22) was 370.5 mg and the “Percent mean tumor weight gain” value ([4]; 20 mg/day gavage, day 22) was 544.7%. The “reduction of mean tumor weight” value [4, 8] was 24.8%, the “Mean tumor Weights” value ([4]; 30 mg/day gavage, day 1) was 67.8 mg and the “Percent mean tumor weight gain” value ([4]; 30 mg/day gavage, day 1) was 100%. The “Mean tumor Weights” value ([4]; 30 mg/day gavage, day 5) was 102.5 mg, the “Percent mean tumor weight gain” value ([4]; 30 mg/day gavage, day 5) was 151.2% and the “Mean tumor Weights” value ([4]; 30 mg/day gavage, day 8) was 131.3 mg. For the same compound, the “Percent mean tumor weight gain” value ([4]; 30 mg/day gavage, day 8) was 193.7%, the “Mean tumor Weights” value ([4]; 30 mg/day gavage, day 12) was 241.2 mg and the “Percent mean tumor weight gain” value ([4]; 30 mg/day gavage, day 12) was 355.8%. For the same compound, the “Mean tumor Weights” value ([4]; 30 mg/day gavage, day 15) was 256.8 mg, the “Percent mean tumor weight gain” value ([4]; 30 mg/day gavage, day 15) was 378.8% and the “Mean tumor Weights” value ([4]; 30 mg/day gavage, day 19) was 379.9 mg. For the same compound, the “Percent mean tumor weight gain” value ([4]; 30 mg/day gavage, day 19) was 379.9%, the “Mean tumor Weights” value ([4]; 30 mg/day gavage, day 22) was 407 mg and the “Percent mean tumor weight gain” value ([4]; 30 mg/day gavage, day 22) was 560.3%. The “reduction of mean tumor weight” value ([5]; 20 mg/day by gavage for 21 days, day 21) was 20.7%, the “Mean tumor Weights” value ([5]; 20 mg/day gavage, day 1) was 70.1 mg and the “Percent mean tumor weight gain” value ([5]; 20 mg/day gavage, day 1) was 100%. The “Mean tumor Weights” value ([5]; 20 mg/day gavage, day 4) was 85.8 mg, the “Percent mean tumor weight gain” value ([5]; 20 mg/day gavage, day 4) was 122.4% and the “Mean tumor Weights” value ([5]; 20 mg/day gavage, day 7) was 123.9 mg. For the same compound, the “Percent mean tumor weight gain” value ([5]; 20 mg/day gavage, day 7) was 176.7%, the “Mean tumor Weights” value ([5]; 20 mg/day gavage, day 10) was 127.9 mg and the “Percent mean tumor weight gain” value ([5]; 20 mg/day gavage, day 10) was 182.5%. The “Mean tumor Weights” value ([5]; 20 mg/day gavage, day 14) was 147.2 mg, the “Percent mean tumor weight gain” value ([5]; 20 mg/day gavage, day 14) was 210.0% and the “Mean tumor Weights” value ([5]; 20 mg/day gavage, day 17) was 143.8 mg. The “Percent mean tumor weight gain” value ([5]; 20 mg/day gavage, day 17) was 205.1%, the “Mean tumor Weights” value ([5]; 20 mg/day gavage, day 21) was 179.4 mg and the “Percent mean tumor weight gain” value ([5]; 20 mg/day gavage, day 21) was 255.9%. The “reduction of mean tumor weight” value ([5]; 30 mg/day by gavage for 21 days, day 21) was 44.6%, the “Mean tumor Weights” value ([5]; 30 mg/day gavage, day 1) was 68.1 mg and the “Percent mean tumor weight gain” value ([5]; 30 mg/day gavage, day 1) was 100%. For the same compound, the “Mean tumor Weights” value ([5]; 30 mg/day gavage, day 4) was 85.7 mg, the “Percent mean tumor weight gain” value ([5]; 30 mg/day gavage, day 4) was 125.8% and the “Mean tumor Weights” value ([5]; 30 mg/day gavage, day 7) was 97.3 mg. The “Percent mean tumor weight gain” value ([5]; 30 mg/day gavage, day 7) was 142.9%, the “Mean tumor Weights” value ([5]; 30 mg/day gavage, day 10) was 98.4 mg and the “Percent mean tumor weight gain” value ([5]; 30 mg/day gavage, day 10) was 144.5%. For the same compound, the “Mean tumor Weights” value ([5]; 30 mg/day gavage, day 14) was 126.6 mg, the “Percent mean tumor weight gain” value ([5]; 30 mg/day gavage, day 14) was 185.9% and the “Mean tumor Weights” value ([5]; 30 mg/day gavage, day 17) was 118.7 mg. For the same compound, the “Percent mean tumor weight gain” value ([5]; 30 mg/day gavage, day 17) was 174.3%, the “Mean tumor Weights” value ([5]; 30 mg/day gavage, day 21) was 125.2 mg and the “Percent mean tumor weight gain” value ([5]; 30 mg/day gavage, day 21) was 178.6%. For the same compound, the “reduction of mean tumor weight” value [6, 7] was 33.3%, the “Mean tumor Weights” value ([6]; 20 mg/day gavage, day 1) was 59.5 mg and the “Percent mean tumor weight gain” value ([6]; 20 mg/day gavage, day 1) was 100%. For the same compound, the “Mean tumor Weights” value ([6]; 20 mg/day gavage, day 5) was 84.0 mg, the “Percent mean tumor weight gain” value ([6]; 20 mg/day gavage, day 5) was 141.2% and the “Mean tumor Weights” value ([6]; 20 mg/day gavage, day 8) was 97.0 mg. For the same compound, the “Percent mean tumor weight gain” value ([6]; 20 mg/day gavage, day 8) was 163.0%, the “Mean tumor Weights” value ([6]; 20 mg/day gavage, day 12) was 124.6 mg and the “Percent mean tumor weight gain” value ([6]; 20 mg/day gavage, day 12) was 209.4%. The “Mean tumor Weights” value ([6]; 20 mg/day gavage, day 15) was 147.3 mg, the “Percent mean tumor weight gain” value ([6]; 20 mg/day gavage, day 15) was 247.6% and the “Mean tumor Weights” value ([6]; 20 mg/day gavage, day 19) was 198.0 mg. The “Percent mean tumor weight gain” value ([6]; 20 mg/day gavage, day 19) was 332.8%, the “Mean tumor Weights” value ([6]; 20 mg/day gavage, day 22) was 248.2 mg and the “Percent mean tumor weight gain” value ([6]; 20 mg/day gavage, day 22) was 417.1%. The “reduction of mean tumor weight” value [6, 8] was 34.5%, the “Mean tumor Weights” value ([6]; 30 mg/day gavage, day 1) was 40.0 mg and the “Percent mean tumor weight gain” value ([6]; 30 mg/day gavage, day 1) was 100%. The “Mean tumor Weights” value ([6]; 30 mg/day gavage, day 5) was 83.0 mg, the “Percent mean tumor weight gain” value ([6]; 30 mg/day gavage, day 5) was 139.5% and the “Mean tumor Weights” value ([6]; 30 mg/day gavage, day 8) was 96.7 mg. The “Percent mean tumor weight gain” value ([6]; 30 mg/day gavage, day 8) was 162.5%, the “Mean tumor Weights” value ([6]; 30 mg/day gavage, day 12) was 129.3 mg and the “Percent mean tumor weight gain” value ([6]; 30 mg/day gavage, day 12) was 217.3%. For the same compound, the “Mean tumor Weights” value ([6]; 30 mg/day gavage, day 15) was 144.1 mg, the “Percent mean tumor weight gain” value ([6]; 30 mg/day gavage, day 15) was 242.2% and the “Mean tumor Weights” value ([6]; 30 mg/day gavage, day 19) was 176.1 mg. The “Percent mean tumor weight gain” value ([6]; 30 mg/day gavage, day 19) was 296.0%, the “Mean tumor Weights” value ([6]; 30 mg/day gavage, day 22) was 243.8 mg and the “Percent mean tumor weight gain” value ([6]; 30 mg/day gavage, day 22) was 409.7%.
